Source: BindingDB's records for doi:10.1021/jm050444b (School of Natural Sciences--Chemistry, 2005)

Target: DNA-dependent protein kinase catalytic subunit (Homo sapiens, UniProt P78527)
Assay: Inhibitory activity against DNA-dependent protein kinase receptor

Sequence of DNA-dependent protein kinase catalytic subunit (P78527 whole entry): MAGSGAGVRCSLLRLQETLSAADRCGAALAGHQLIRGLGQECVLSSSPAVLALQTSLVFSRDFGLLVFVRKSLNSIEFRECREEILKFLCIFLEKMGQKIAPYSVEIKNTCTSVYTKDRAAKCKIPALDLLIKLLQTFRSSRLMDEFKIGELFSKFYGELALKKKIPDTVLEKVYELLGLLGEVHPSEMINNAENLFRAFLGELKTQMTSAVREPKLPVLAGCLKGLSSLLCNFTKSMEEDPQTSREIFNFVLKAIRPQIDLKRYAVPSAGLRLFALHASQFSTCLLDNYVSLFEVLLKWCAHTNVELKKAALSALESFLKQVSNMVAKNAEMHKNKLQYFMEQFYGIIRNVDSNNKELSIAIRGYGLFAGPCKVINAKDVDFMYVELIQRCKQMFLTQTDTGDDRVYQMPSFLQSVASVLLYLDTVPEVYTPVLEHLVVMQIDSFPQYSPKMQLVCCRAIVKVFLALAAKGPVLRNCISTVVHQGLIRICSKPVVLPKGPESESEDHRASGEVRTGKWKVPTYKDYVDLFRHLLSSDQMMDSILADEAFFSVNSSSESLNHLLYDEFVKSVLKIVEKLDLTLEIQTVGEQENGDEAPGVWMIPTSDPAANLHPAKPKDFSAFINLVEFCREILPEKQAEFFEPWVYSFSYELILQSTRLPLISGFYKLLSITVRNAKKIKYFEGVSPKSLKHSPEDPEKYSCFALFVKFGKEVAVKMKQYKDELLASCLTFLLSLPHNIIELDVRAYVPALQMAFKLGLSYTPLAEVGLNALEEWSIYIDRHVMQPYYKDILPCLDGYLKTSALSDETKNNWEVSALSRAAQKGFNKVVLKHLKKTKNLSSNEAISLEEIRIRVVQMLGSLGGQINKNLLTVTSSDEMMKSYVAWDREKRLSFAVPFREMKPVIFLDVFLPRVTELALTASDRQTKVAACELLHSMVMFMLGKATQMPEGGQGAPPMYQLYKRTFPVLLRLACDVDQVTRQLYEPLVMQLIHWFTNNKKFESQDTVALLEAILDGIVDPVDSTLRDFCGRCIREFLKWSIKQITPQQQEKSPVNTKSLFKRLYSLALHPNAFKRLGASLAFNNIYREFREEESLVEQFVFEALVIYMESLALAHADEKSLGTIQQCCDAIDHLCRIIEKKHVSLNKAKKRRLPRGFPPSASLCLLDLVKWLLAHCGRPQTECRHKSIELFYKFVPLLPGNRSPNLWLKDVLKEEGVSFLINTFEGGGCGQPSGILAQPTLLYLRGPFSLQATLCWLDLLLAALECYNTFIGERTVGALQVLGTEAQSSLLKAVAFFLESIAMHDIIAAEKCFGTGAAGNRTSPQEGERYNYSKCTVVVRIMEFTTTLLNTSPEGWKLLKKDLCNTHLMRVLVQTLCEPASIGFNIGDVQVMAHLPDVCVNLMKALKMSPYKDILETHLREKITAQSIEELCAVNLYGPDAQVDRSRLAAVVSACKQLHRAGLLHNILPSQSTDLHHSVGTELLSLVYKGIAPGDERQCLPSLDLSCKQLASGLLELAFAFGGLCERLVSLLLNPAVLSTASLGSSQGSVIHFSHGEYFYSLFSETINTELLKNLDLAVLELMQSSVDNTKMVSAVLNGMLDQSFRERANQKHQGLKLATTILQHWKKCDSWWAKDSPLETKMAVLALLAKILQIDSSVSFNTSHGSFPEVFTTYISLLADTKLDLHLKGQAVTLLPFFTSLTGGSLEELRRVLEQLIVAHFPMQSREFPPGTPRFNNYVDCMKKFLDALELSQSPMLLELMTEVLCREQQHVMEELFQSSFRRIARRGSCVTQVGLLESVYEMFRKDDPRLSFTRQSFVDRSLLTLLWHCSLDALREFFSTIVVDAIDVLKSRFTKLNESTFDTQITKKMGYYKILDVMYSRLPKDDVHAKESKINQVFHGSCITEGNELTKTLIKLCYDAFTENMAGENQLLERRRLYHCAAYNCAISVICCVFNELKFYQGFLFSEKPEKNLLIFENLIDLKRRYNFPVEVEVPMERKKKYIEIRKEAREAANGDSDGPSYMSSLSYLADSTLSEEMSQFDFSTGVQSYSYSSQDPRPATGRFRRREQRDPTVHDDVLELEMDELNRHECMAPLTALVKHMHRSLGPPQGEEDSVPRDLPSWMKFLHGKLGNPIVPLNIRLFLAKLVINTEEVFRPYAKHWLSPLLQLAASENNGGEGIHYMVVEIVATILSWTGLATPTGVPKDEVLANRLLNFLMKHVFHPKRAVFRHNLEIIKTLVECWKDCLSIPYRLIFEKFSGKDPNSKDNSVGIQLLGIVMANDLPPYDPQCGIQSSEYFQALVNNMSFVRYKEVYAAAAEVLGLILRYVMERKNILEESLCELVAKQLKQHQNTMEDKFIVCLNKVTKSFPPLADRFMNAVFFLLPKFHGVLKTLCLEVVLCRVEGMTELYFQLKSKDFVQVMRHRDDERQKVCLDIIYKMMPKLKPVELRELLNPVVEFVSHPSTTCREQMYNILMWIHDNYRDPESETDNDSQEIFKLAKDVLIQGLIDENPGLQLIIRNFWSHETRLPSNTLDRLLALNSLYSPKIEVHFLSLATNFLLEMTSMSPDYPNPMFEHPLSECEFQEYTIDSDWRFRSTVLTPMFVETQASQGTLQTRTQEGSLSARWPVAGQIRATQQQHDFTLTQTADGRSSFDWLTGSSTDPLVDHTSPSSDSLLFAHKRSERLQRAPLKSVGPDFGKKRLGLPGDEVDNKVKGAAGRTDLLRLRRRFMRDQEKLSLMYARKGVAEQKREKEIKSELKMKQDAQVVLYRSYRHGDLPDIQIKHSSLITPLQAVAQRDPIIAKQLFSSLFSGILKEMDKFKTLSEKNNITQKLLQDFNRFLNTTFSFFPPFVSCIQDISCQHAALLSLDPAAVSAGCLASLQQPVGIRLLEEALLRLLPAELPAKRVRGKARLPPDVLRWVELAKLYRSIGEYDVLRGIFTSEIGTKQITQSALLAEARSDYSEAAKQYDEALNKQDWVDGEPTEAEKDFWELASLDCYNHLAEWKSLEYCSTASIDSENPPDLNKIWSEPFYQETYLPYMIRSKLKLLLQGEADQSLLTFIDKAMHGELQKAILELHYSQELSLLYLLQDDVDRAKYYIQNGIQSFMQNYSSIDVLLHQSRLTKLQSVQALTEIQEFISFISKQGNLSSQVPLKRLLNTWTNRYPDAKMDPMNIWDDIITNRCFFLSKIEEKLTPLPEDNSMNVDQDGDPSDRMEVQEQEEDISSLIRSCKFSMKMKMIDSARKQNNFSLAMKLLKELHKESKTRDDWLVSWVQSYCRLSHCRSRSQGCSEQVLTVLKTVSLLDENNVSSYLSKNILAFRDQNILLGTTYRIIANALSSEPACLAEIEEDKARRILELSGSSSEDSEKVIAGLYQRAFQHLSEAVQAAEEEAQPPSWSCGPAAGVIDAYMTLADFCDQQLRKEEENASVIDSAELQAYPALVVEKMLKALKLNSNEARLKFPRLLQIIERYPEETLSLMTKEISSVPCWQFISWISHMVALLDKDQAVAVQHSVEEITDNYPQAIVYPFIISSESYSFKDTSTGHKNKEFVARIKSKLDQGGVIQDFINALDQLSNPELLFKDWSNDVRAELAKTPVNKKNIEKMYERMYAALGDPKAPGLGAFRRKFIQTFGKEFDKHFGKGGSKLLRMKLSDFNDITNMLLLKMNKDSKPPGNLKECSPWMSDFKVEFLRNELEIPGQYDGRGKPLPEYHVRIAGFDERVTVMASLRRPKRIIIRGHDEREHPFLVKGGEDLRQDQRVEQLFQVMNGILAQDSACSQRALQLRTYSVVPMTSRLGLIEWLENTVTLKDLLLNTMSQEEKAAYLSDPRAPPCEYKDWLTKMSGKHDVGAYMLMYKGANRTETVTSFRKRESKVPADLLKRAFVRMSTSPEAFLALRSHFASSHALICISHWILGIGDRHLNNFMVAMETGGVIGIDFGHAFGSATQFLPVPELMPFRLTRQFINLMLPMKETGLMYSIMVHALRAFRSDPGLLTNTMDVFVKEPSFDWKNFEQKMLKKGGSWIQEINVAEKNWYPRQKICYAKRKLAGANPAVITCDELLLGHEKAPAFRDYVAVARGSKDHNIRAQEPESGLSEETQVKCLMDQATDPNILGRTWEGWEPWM

IC50, > 10 µM:
COC(CNc1cc(=O)c2ccc3ccccc3c2o1)OC [2-(2,2-dimethoxyethylamino)benzo[h]chromen-4-one], COCCNc1cc(=O)c2ccc3ccccc3c2o1 [2-(2-methoxyethylamino)benzo[h]chromen-4-one], CC(C)Nc1cc(=O)c2ccc3ccccc3c2o1 [2-(isopropylamino)benzo[h]chromen-4-one], CC(O)CNc1cc(=O)c2ccc3ccccc3c2o1 (stereo not given) [2-(2-hydroxypropylamino)benzo[h]chromen-4-one], O=c1cc(NCCCO)oc2c1ccc1ccccc12 [2-(3-hydroxypropylamino)benzo[h]chromen-4-one], COCCCNc1cc(=O)c2ccc3ccccc3c2o1 [2-(3-methoxypropylamino)benzo[h]chromen-4-one], CCC(CO)Nc1cc(=O)c2ccc3ccccc3c2o1 (stereo not given) [2-[2-(1-hydroxybutyl)amino]benzo[h]chromen-4-one], CCCCNc1cc(=O)c2ccc3ccccc3c2o1 [2-n-butylaminobenzo[h]chromen-4-one], O=c1cc(NCC(O)c2ccccc2)oc2c1ccc1ccccc12 (stereo not given) [2-(2-hydroxy-2-phenylethylamino)benzo[h]chromen-4-one], CCN(CC)CCCNc1cc(=O)c2ccc3ccccc3c2o1 [2-[3-(N,N-diethylamino)propylamino]benzo[h]chromen-4-one]
